Results published in patent US10301317B2, “Inhibitors of ERK and methods of use” (Kura Oncology, Inc., priority 2013, dated 2019).
pIC50: −log10 of the molar value.

test system: phospho-p90 RSK (RSK1 Thr359/Ser363) in A375 (Braf V600E) cells; test: Phospho-p90 RSK ELISA using A375 (Braf V600E) cells; format: cell-based; settings: Homo sapiens, A-375, 2 hours compound treatment, read-out: Cellular Phospho-p90RSK IC50
Experimental: In preparation for the assay, an ELISA plate with the pre-coated goat anti-mouse antibody (Thermo Scientific) was treated with a mouse anti-human RSK1 antibody (monoclonal, Invitrogen) at 1:800 dilution (150 ng/well) in PBS, and the plate was placed on a plate shaker at 4° C. overnight. […] After two […] of the compound treatment, the supernatant was removed from the cell plate, and cells were lysed in 100 μl per well of cell lysis buffer (Cell Signaling Technologies) containing phosphatase and protease inhibitors (Cell Signaling Technologies) on a plate shaker at 4° C. for 20 minutes. The ELISA plate was washed four times with ELISA wash buffer (Thermo Scientific) prior to addition of 100 μL cell lysate. The lysate was incubated on the ELISA plate with gentle shaking at room temperature for 2 hours. The contents of the wells were removed, and the ELISA plate was washed four times with wash buffer, and incubated with 100 μL per well of anti-phospho-RSK1 (Thr359/Ser363) rabbit monoclonal antibody (Millipore) at dilution of 1:1000 in StartingBlock buffer (Thermo Scientific) on a plate shaker at room temperature for 1 hour. The contents of the wells were removed, the ELISA plate was washed four times with wash buffer, and was incubated with 100 μL per well of goat anti-rabbit HRP (Thermo Scientific) at dilution of 1:3000 in StartingBlock buffer (Thermo Scientific) on a plate shaker at room temperature for 1 hour. The contents of the wells were removed, the ELISA plate was washed four times with wash buffer, and then incubated with 100 μL per well of TMB substrate solution (Thermo Scientific) on a plate shaker at room temperature for 20 minutes. Finally, 100 μL of TMB stop solution (Thermo Scientific) was added to each well and the absorbance is measured at 450 nm on a Tecan plate reader.

Compared with Cc1ccc(CN2CCC[C@@H](N3Cc4cc5c(-c6ccnc(C)c6)n[nH]c5cc4NC3=O)C2)cn1 [Example 131], Cc1cc(-c2n[nH]c3cc4c(cc23)CN([C@@H]2CCCN(Cc3ncccc3C)C2)C(=O)N4)ccn1 [Example 168] is higher in pIC50: < 6.00 for the first, 6.00 to 6.60 for the second. The second is the more potent here.

Compared with Cc1cc(-c2n[nH]c3cc4c(cc23)CN([C@@H]2CCCN(C3CCCC3)C2)C(=O)N4)ccn1 [Example 215], Cc1cc(-c2n[nH]c3cc4c(cc23)CN([C@@H]2CCN(CC3CCCC3)C2)C(=O)N4)ccn1 [Example 206] is lower in pIC50: 6.00 to 6.60 for the first, < 6.00 for the second.

Compared with Cc1cc(-c2n[nH]c3cc4c(cc23)CN([C@@H]2CNC[C@H]2c2ccccc2)C(=O)N4)ccn1 (racemic) [Example 223], Cc1cc(-c2n[nH]c3cc4c(cc23)CN([C@H]2CN(C(C)C)C[C@@H]2c2ccccc2)C(=O)N4)ccn1 [Example 296] is lower in pIC50: 6.00 to 6.60 for the first, < 6.00 for the second. The first is the more potent here.

O=C1Nc2cc3[nH]nc(-c4ccnnc4)c3cc2CN1Cc1cccc(C(F)(F)F)c1 [Example 124] and O=C1Nc2cc3[nH]nc(-c4ccnnc4)c3cc2CN1CCc1ccc(F)cc1 [Example 110] fall in the same range of pIC50: 6.00 to 6.60 for the first, 6.00 to 6.60 for the second.

CC(c1ccccc1)c1cc2cc3c(N4CCN(C)CC4)n[nH]c3cc2[nH]c1=O (stereo not shown) [Example 358] and Cc1cc(-c2n[nH]c3cc4[nH]c(=O)c(C(C)C5CCCCC5)cc4cc23)ccn1 (stereo not shown) [Example 160] cannot be ordered by pIC50: < 6.00 for the first, < 6.00 for the second.

COc1ncc(-c2n[nH]c3cc4c(cc23)CN([C@H](CO)c2cccc(Cl)c2)C(=O)N4)cn1 [Example 118] and COc1ncc(-c2n[nH]c3cc4c(cc23)CN(CCc2cccc(Cl)c2)C(=O)N4)cn1 [Example 86] cannot be ordered by pIC50: ≥ 6.60 for the first, ≥ 6.60 for the second.

Cc1cc(-c2n[nH]c3cc4c(cc23)CN(C2CCN(Cc3ccccc3)CC2)C(=O)N4)ccn1 [Example 70] and Cc1cc(-c2n[nH]c3cc4c(cc23)CN(C2CN(CCc3ccccc3)C2)C(=O)N4)ccn1 [Example 192] fall in the same range of pIC50: 6.00 to 6.60 for the first, 6.00 to 6.60 for the second.

Cc1cc(-c2n[nH]c3cc4c(cc23)CN([C@@H]2CCCN(c3cccc(C)n3)C2)C(=O)N4)ccn1 [Example 238] and Cc1cc(-c2n[nH]c3cc4c(cc23)CN([C@@H]2CCCN(Cc3sc(C)nc3C)C2)C(=O)N4)ccn1 [Example 195] cannot be ordered by pIC50: ≥ 6.60 for the first, 6.00 to 6.60 for the second.

First: Cc1cc(-c2n[nH]c3cc4c(cc23)CN(CC2CCCN(Cc3ccccc3)C2)C(=O)N4)ccn1 (stereo not shown) [Example 208]
Second: Cc1cc(-c2n[nH]c3cc4c(cc23)CN([C@@H]2CCCN(Cc3ccc(Cl)cc3)C2)C(=O)N4)ccn1 [Example 159]
The pIC50 of the first is lower: < 6.00 for the first, 6.00 to 6.60 for the second. The second is the more potent here.

Cc1cc(-c2n[nH]c3cc4c(cc23)CN([C@@H]2CCCN(CC3CC3)C2)C(=O)N4)ccn1 [Example 62] and Cc1cc(-c2n[nH]c3cc4c(cc23)CN([C@@H]2CCCN(CCC3CC3)C2)C(=O)N4)ccn1 [Example 155] fall in the same range of pIC50: 6.00 to 6.60 for the first, 6.00 to 6.60 for the second.

O=C1Nc2cc3[nH]nc(N4CCOCC4)c3cc2CN1Cc1cccc(Cl)c1 [Example 78] and Cc1ccc(-c2n[nH]c3cc4c(cc23)CN(Cc2cccc(Cl)c2)C(=O)N4)cn1 [Example 58] cannot be ordered by pIC50: ≥ 6.60 for the first, ≥ 6.60 for the second.

Cc1cc(-c2n[nH]c3cc4c(cc23)CN([C@@H]2CCN(C)C2)C(=O)N4)ccn1 [Example 255] and Cc1cc(-c2n[nH]c3cc4c(cc23)CN([C@@H]2CCN(C(C)C)C2)C(=O)N4)ccn1 [Example 268] cannot be ordered by pIC50: < 6.00 for the first, < 6.00 for the second.

Compared with COc1ncc(-c2n[nH]c3cc4c(cc23)CN([C@H]2CCCN(Cc3ccccc3)C2)C(=O)N4)cn1 [Example 365], COc1ncc(-c2n[nH]c3cc4c(cc23)CN([C@@H]2CCCN(Cc3cccs3)C2)C(=O)N4)cn1 [Example 295] is higher in pIC50: < 6.00 for the first, ≥ 6.60 for the second.

Cc1cc(-c2n[nH]c3cc4c(cc23)CN([C@@H]2CCCN(C(=O)c3ccccc3)C2)C(=O)N4)ccn1 [Example 172] and Cc1cc(-c2n[nH]c3cc4c(cc23)CN([C@@H]2CCCN(Cc3ccc(F)s3)C2)C(=O)N4)ccn1 [Example 290] cannot be ordered by pIC50: 6.00 to 6.60 for the first, ≥ 6.60 for the second.

COc1ccc(-c2n[nH]c3cc4c(cc23)CN([C@@H]2CN(C)C[C@H]2c2ccccc2)C(=O)N4)cn1 (mixture of isomers) [Example 353] and O=C1Nc2cc3[nH]nc(-c4cccnc4)c3cc2CN1[C@@H]1CN(CC(F)(F)F)C[C@H]1c1ccccc1 [Example 341] cannot be ordered by pIC50: ≥ 6.60 for the first, ≥ 6.60 for the second.

First: Cc1cc(-c2n[nH]c3cc4c(cc23)CN([C@@H]2CN(CC(F)(F)F)C[C@H]2C(C)C)C(=O)N4)ccn1 (mixture of isomers) [Example 322]
Second: Cc1cc(-c2n[nH]c3cc4c(cc23)CN([C@@H]2CN(CC(F)(F)F)C[C@H]2C(C)(C)C)C(=O)N4)ccn1 [Example 329]
The pIC50 of the first is higher: 6.00 to 6.60 for the first, < 6.00 for the second. The first is the more potent here.

Cn1cc(-c2n[nH]c3cc4c(cc23)CN([C@@H]2CN(CC(F)(F)F)C[C@H]2c2ccccc2)C(=O)N4)cn1 [Example 352] and Cc1cc(-c2n[nH]c3cc4c(cc23)CN([C@@H]2CN(CC(F)(F)F)C[C@H]2c2ccc(F)cc2)C(=O)N4)ccn1 (racemic) [Example 300] cannot be ordered by pIC50: ≥ 6.60 for the first, ≥ 6.60 for the second.

COc1ncc(-c2n[nH]c3cc4c(cc23)CN(Cc2cc(F)cc(F)c2)C(=O)N4)cn1 [Example 88] and COc1ncc(-c2n[nH]c3cc4c(cc23)CN(Cc2ccc(F)cc2)C(=O)N4)cn1 [Example 72] cannot be ordered by pIC50: ≥ 6.60 for the first, ≥ 6.60 for the second.

Compared with Cc1cc(-c2n[nH]c3cc4c(cc23)CN(CCC2CCOCC2)C(=O)N4)ccn1 [Example 220], Cc1cc(-c2n[nH]c3cc4c(cc23)CN(CCC2CC2)C(=O)N4)ccn1 [Example 283] is lower in pIC50: ≥ 6.60 for the first, < 6.00 for the second. The first is the more potent here.

COc1cc(-c2n[nH]c3cc4[nH]c(=O)c(C5CCCN(Cc6ccccc6)C5)cc4cc23)ccn1 (stereo not shown) [Example 370] and Cc1cc(-c2n[nH]c3cc4[nH]c(=O)c(Cc5ccccc5)cc4cc23)ccn1 [Example 6] cannot be ordered by pIC50: ≥ 6.60 for the first, ≥ 6.60 for the second.

Compared with Cc1cc(-c2n[nH]c3cc4c(cc23)CN(CCNCc2ccc(F)cc2)C(=O)N4)ccn1 [Example 175], Cc1cc(-c2n[nH]c3cc4c(cc23)CN(CCNCc2ccc(F)c(Cl)c2)C(=O)N4)ccn1 [Example 173] is lower in pIC50: 6.00 to 6.60 for the first, < 6.00 for the second.

Compared with Cc1cc(-c2n[nH]c3cc4c(cc23)CN([C@@H]2CCCN(CC(=O)C(C)C)C2)C(=O)N4)ccn1 [Example 209], Cc1cc(-c2n[nH]c3cc4c(cc23)CN([C@@H]2CCCN(CC(O)C(C)(C)C)C2)C(=O)N4)ccn1 (stereo partly shown) [Example 236] is lower in pIC50: 6.00 to 6.60 for the first, < 6.00 for the second.

Compared with Cc1cc(-c2n[nH]c3cc4c(cc23)CN([C@H](C)CO)C(=O)N4)ccn1 [Example 54], Cc1cc(-c2n[nH]c3cc4c(cc23)CN(C(C)CC(C)C)C(=O)N4)ccn1 (stereo not shown) [Example 53] is higher in pIC50: < 6.00 for the first, 6.00 to 6.60 for the second. The second is the more potent here.

Going from Cc1cc(-c2n[nH]c3cc4c(cc23)CN(Cc2nc(C)cs2)C(=O)N4)ccn1 [Example 246] to Cc1cc(-c2n[nH]c3cc4c(cc23)CN(CCN(C)C)C(=O)N4)ccn1 [Example 46], the pIC50 falls from ≥ 6.60 to < 6.00. The first is the more potent here.

Cc1cc(-c2n[nH]c3cc4c(cc23)CN([C@H]2CCN(CC(F)(F)F)C2)C(=O)N4)ccn1 [Example 299] and Cc1cc(-c2n[nH]c3cc4c(cc23)CN([C@@H]2CCN(CCC(C)C)C2)C(=O)N4)ccn1 [Example 207] cannot be ordered by pIC50: ≥ 6.60 for the first, 6.00 to 6.60 for the second.

First: Cc1cc(-c2n[nH]c3cc4c(cc23)CN(C2CCOCC2)C(=O)N4)ccn1 [Example 44]
Second: Cc1cc(-c2n[nH]c3cc4c(cc23)CN(C2CN(CCC3CC3)C2)C(=O)N4)ccn1 [Example 189]
The pIC50 of the first is higher: 6.00 to 6.60 for the first, < 6.00 for the second. The first is the more potent here.

Compared with Cc1cc(-c2n[nH]c3cc4c(cc23)CN(C(C)c2nc(C)c(C)s2)C(=O)N4)ccn1 (stereo not shown) [Example 286], Cc1cc(-c2n[nH]c3cc4c(cc23)CN([C@@H]2CN(C)C[C@H]2C(C)C)C(=O)N4)ccn1 (mixture of isomers) [Example 327] is lower in pIC50: ≥ 6.60 for the first, < 6.00 for the second. The first is the more potent here.

Cc1cc(-c2n[nH]c3cc4c(cc23)CN(CC2CC2)C(=O)N4)ccn1 [Example 258] and Cc1cc(-c2n[nH]c3cc4c(cc23)CN(CCNCc2cccc(Cl)c2)C(=O)N4)ccn1 [Example 176] cannot be ordered by pIC50: ≥ 6.60 for the first, 6.00 to 6.60 for the second.

Compared with O=C1Nc2cc3[nH]nc(C4CC4)c3cc2CN1Cc1ccc(F)c(Cl)c1 [Example 42], Cc1cc(-c2n[nH]c3cc4c(cc23)CN(Cc2ccc(C(F)(F)F)cc2)C(=O)N4)cc(C)n1 [Example 233] is higher in pIC50: < 6.00 for the first, ≥ 6.60 for the second. The second is the more potent here.

Compared with COc1ncc(-c2n[nH]c3cc4c(cc23)CN(Cc2cccc(C#N)c2)C(=O)N4)cn1 [Example 125], Cc1cc(-c2n[nH]c3cc4c(cc23)CN([C@@H]2CCCN(Cc3cncnc3)C2)C(=O)N4)ccn1 [Example 166] is lower in pIC50: 6.00 to 6.60 for the first, < 6.00 for the second. The first is the more potent here.

Going from Cc1cc(-c2n[nH]c3cc4c(cc23)CN([C@H]2CN(CC(F)F)C[C@@H]2c2ccccc2)C(=O)N4)cc(C)n1 [Example 385] to O=C1Nc2cc3[nH]nc(-c4ccnnc4)c3cc2CN1[C@@H]1CCCN(Cc2c(F)cccc2F)C1 [Example 122], the pIC50 rises from < 6.00 to ≥ 6.60. The second is the more potent here.

Cc1cc(-c2n[nH]c3cc4c(cc23)CN([C@@H]2CCCN(Cc3cnn(C)c3)C2)C(=O)N4)ccn1 [Example 133] and Cn1nccc1-c1n[nH]c2cc3c(cc12)CN([C@@H]1CCN(CC(F)(F)F)C1)C(=O)N3 [Example 265] cannot be ordered by pIC50: < 6.00 for the first, < 6.00 for the second.
